pIC50: −log10 of the molar value.
Experiments:
LmPC-PLC [1] = biological target: T1, LmPC-PLC (Listeria monocytogenes serovar 1/2a, UniProt P33378); test: biochemical; format: biochemical; settings: for relative activity of LmPC-PLC WT on 4-NPPC (compared to uninhibited activity): Fig. 4g; for Activity of LmPC-PLC towards 4-NPPC (slope): 50 μM ZnSO4
LmPC-PLC [2] = biological target: T1, LmPC-PLC; format: biochemical; settings: 100% POPC MLVs […], 20 mM MES pH 6.5, 150 mM NaCl, 50 μM ZnSO4, 37 °C, replicate 1
[3] = biological target: broad-range phospholipase C from Listeria monocytogenes (LmPC-PLC), wild type, mature form (Listeria monocytogenes) (UniProt P33378)

T1 sequence (P33378 52-289 limits assumed): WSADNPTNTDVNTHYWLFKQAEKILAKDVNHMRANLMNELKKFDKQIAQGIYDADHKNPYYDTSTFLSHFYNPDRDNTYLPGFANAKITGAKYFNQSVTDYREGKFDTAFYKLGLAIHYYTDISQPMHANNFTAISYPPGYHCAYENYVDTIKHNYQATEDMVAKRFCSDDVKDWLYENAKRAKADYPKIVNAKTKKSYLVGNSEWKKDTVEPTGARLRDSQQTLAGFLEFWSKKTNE
broad-range phospholipase C from Listeria monocytogenes (LmPC-PLC), wild type, mature form, sequence (P33378 52-289): as the sequence (P33378 52-289 limits assumed) above

CC[C@H](C)[C@H](NC(=O)[C@H](CC(=O)O)NC(=O)[C@H](Cc1c[nH]cn1)NC(=O)[C@@H]1CCCN1C(=O)[C@H](C)NC(=O)[C@H](C)NC(=O)[C@@H]1CCCN1C(=O)[C@@H](NC(=O)[C@H](CCC(N)=O)NC(=O)[C@H](CC(C)C)NC(=O)[C@H](Cc1ccc(O)cc1)NC(=O)[C@H](CCC(=O)O)NC(=O)[C@H](CC(=O)O)NC(=O)[C@H](CS)NC(=O)[C@H](CS)NC(=O)[C@H](C)NC(=O)[C@@H](N)CC(N)=O)[C@@H](C)O)C(=O)N[C@@H](CC(=O)O)C(=O)N[C@@H](CO)C(=O)N[C@@H](CCCCN)C(=O)N[C@@H](CC(C)C)C(=O)N1CCC[C@H]1C(=O)N[C@@H](Cc1c[nH]cn1)C(=O)N[C@@H](CCCCN)C(=O)N[C@@H](CC(C)C)C(=O)N[C@@H](CO)C(=O)O [NS-26]
relative activity on 4-NPPC (compared to uninhibited activity), Lm (LmPC-PLC [1]; Fig. 4e, peptide 100uM, PC-PLC 500 nM, 4-NPPC 1 mM, 20 mM MES pH 6.5, 150 mM NaCl, 500 μM ZnSO4, 37 °C, replicate 1): 0.3179 | relative activity of LmPC-PLC WT on 4-NPPC (compared to uninhibited activity) (LmPC-PLC [1]; as E100, replicate 2): 0.2706 | relative activity of LmPC-PLC WT on 4-NPPC (compared to uninhibited activity) (LmPC-PLC [1]; as E100, replicate 3): 0.2574 | relative activity of LmPC-PLC WT on 4-NPPC (compared to uninhibited activity) (LmPC-PLC [1]; peptide 100 uM, enzyme 500 nM, 4-NPPC 1 mM, 20 mM MES pH 6.5, 150 mM NaCl, 500 μM ZnSO4, 37 °C, replicate 1): 0.2356 | pIC50 (LmPC-PLC [1]; IC50, 95% CI, as IC50, 95% CI from the fit): 4.47 to 5.31 | pIC50 (LmPC-PLC [1]; IC50, LmPC-PLC 500 nM, 4-NPPC 1 mM, 20 mM MES pH 6.5, 150 mM NaCl, 500 μM ZnSO4, 37 °C, four-parameter logistic fit, n = 3): 5.03 | relative activity on POPC (compared to uninhibited activity), Lm (LmPC-PLC [2]; Fig. 4f, peptide 10 uM, PC-PLC 50 nM): 0.3051 | relative activity of LmPC-PLC WT on POPC (compared to uninhibited activity) (LmPC-PLC [2]; Fig. 4h, peptide 100 uM as printed in the head (legend and method: 10 μM), enzyme 50 nM): 0.2837

O=C(O)CCP(CCC(=O)O)CCC(=O)O [TCEP]
Activity of LmPC-PLC, 4-NPPC as substrate (slope) (LmPC-PLC [1]; 1 mM TCEP, Zn 500 uM, LmPC-PLC 500 nM, 4-NPPC 1 mM, replicate 1): 6.624e-5 | Activity of LmPC-PLC, 4-NPPC as substrate (slope) (LmPC-PLC [1]; 1 mM TCEP, Zn 500 uM, LmPC-PLC 500 nM, 4-NPPC 1 mM, replicate 2): 6.51e-5 | Activity of LmPC-PLC, 4-NPPC as substrate (slope) (LmPC-PLC [1]; 1 mM TCEP, Zn 500 uM, LmPC-PLC 500 nM, 4-NPPC 1 mM, replicate 3): 6.545e-5 | Activity of LmPC-PLC, 4-NPPC as substrate (slope) (LmPC-PLC [1]; 1 mM TCEP, Zn 5000 uM, LmPC-PLC 500 nM, 4-NPPC 1 mM, replicate 1): 0.0001618 | Activity of LmPC-PLC, 4-NPPC as substrate (slope) (LmPC-PLC [1]; 1 mM TCEP, Zn 5000 uM, LmPC-PLC 500 nM, 4-NPPC 1 mM, replicate 2): 0.0001898 | Activity of LmPC-PLC, 4-NPPC as substrate (slope) (LmPC-PLC [1]; 1 mM TCEP, Zn 5000 uM, LmPC-PLC 500 nM, 4-NPPC 1 mM, replicate 3): 0.0002041 | Activity of LmPC-PLC, 4-NPPC as substrate (slope) (LmPC-PLC [1]; 5 mM TCEP, Zn 500 uM, LmPC-PLC 500 nM, 4-NPPC 1 mM, replicate 1, value 0 = no slope could be determined): 0.00000 | Activity of LmPC-PLC, 4-NPPC as substrate (slope) (LmPC-PLC [1]; 5 mM TCEP, Zn 500 uM, LmPC-PLC 500 nM, 4-NPPC 1 mM, replicate 2, value 0 = no slope could be determined): 0.00000 | Activity of LmPC-PLC, 4-NPPC as substrate (slope) (LmPC-PLC [1]; 5 mM TCEP, Zn 500 uM, LmPC-PLC 500 nM, 4-NPPC 1 mM, replicate 3, value 0 = no slope could be determined): 0.00000 | Activity of LmPC-PLC, 4-NPPC as substrate (slope) (LmPC-PLC [1]; 5 mM TCEP, Zn 5000 uM, LmPC-PLC 500 nM, 4-NPPC 1 mM, replicate 1, value 0 = no slope could be determined): 0.00000 | Activity of LmPC-PLC, 4-NPPC as substrate (slope) (LmPC-PLC [1]; 5 mM TCEP, Zn 5000 uM, LmPC-PLC 500 nM, 4-NPPC 1 mM, replicate 2, value 0 = no slope could be determined): 0.00000 | Activity of LmPC-PLC, 4-NPPC as substrate (slope) (LmPC-PLC [1]; 5 mM TCEP, Zn 5000 uM, LmPC-PLC 500 nM, 4-NPPC 1 mM, replicate 3, value 0 = no slope could be determined): 0.00000 | Activity of LmPC-PLC, 4-NPPC as substrate (slope) (LmPC-PLC [1]; 20 mM TCEP, Zn 500 uM, LmPC-PLC 500 nM, 4-NPPC 1 mM, replicate 1, value 0 = no slope could be determined): 0.00000 | Activity of LmPC-PLC, 4-NPPC as substrate (slope) (LmPC-PLC [1]; 20 mM TCEP, Zn 500 uM, LmPC-PLC 500 nM, 4-NPPC 1 mM, replicate 2, value 0 = no slope could be determined): 0.00000 | Activity of LmPC-PLC, 4-NPPC as substrate (slope) (LmPC-PLC [1]; 20 mM TCEP, Zn 500 uM, LmPC-PLC 500 nM, 4-NPPC 1 mM, replicate 3, value 0 = no slope could be determined): 0.00000 | Activity of LmPC-PLC, 4-NPPC as substrate (slope) (LmPC-PLC [1]; 20 mM TCEP, Zn 5000 uM, LmPC-PLC 500 nM, 4-NPPC 1 mM, replicate 1, value 0 = no slope could be determined): 0.00000 | Activity of LmPC-PLC, 4-NPPC as substrate (slope) (LmPC-PLC [1]; 20 mM TCEP, Zn 5000 uM, LmPC-PLC 500 nM, 4-NPPC 1 mM, replicate 2, value 0 = no slope could be determined): 0.00000 | Activity of LmPC-PLC, 4-NPPC as substrate (slope) (LmPC-PLC [1]; 20 mM TCEP, Zn 5000 uM, LmPC-PLC 500 nM, 4-NPPC 1 mM, replicate 3, value 0 = no slope could be determined): 0.00000

c1ccc(CN(CCN(Cc2ccccn2)Cc2ccccn2)Cc2ccccn2)nc1 [TPEN, N,N,N′,N′-tetrakis(2-pyridinylmethyl)−1,2-ethanediamine]
inhibition of LmPC-PLC compared with O-phe (LmPC-PLC [1]; LmPC-PLC 500 nM, 4-NPPC 1 mM, pH 6.5, 50 μM ZnSO4, Supplementary Fig. 10): even stronger inhibition | Activity of LmPC-PLC towards 4-NPPC (slope) (LmPC-PLC [1]; inhibitor 2 uM, LmPC-PLC 500 nM, 4-NPPC 1 mM, 20 mM MES pH 6.5, 150 mM NaCl, replicate 1 of N=3): 0.0004788 abs/min | Activity of LmPC-PLC towards 4-NPPC (slope) (LmPC-PLC [1]; inhibitor 2 uM, LmPC-PLC 500 nM, 4-NPPC 1 mM, 20 mM MES pH 6.5, 150 mM NaCl, replicate 2 of N=3): 0.0004923 abs/min | Activity of LmPC-PLC towards 4-NPPC (slope) (LmPC-PLC [1]; inhibitor 2 uM, LmPC-PLC 500 nM, 4-NPPC 1 mM, 20 mM MES pH 6.5, 150 mM NaCl, replicate 3 of N=3): 0.0004163 abs/min | Activity of LmPC-PLC towards 4-NPPC (slope) (LmPC-PLC [1]; inhibitor 4 uM, LmPC-PLC 500 nM, 4-NPPC 1 mM, 20 mM MES pH 6.5, 150 mM NaCl, replicate 1 of N=3): 0.0004484 abs/min | Activity of LmPC-PLC towards 4-NPPC (slope) (LmPC-PLC [1]; inhibitor 4 uM, LmPC-PLC 500 nM, 4-NPPC 1 mM, 20 mM MES pH 6.5, 150 mM NaCl, replicate 2 of N=3): 0.0005039 abs/min | Activity of LmPC-PLC towards 4-NPPC (slope) (LmPC-PLC [1]; inhibitor 4 uM, LmPC-PLC 500 nM, 4-NPPC 1 mM, 20 mM MES pH 6.5, 150 mM NaCl, replicate 3 of N=3): 0.0004264 abs/min | Activity of LmPC-PLC towards 4-NPPC (slope) (LmPC-PLC [1]; inhibitor 8 uM, LmPC-PLC 500 nM, 4-NPPC 1 mM, 20 mM MES pH 6.5, 150 mM NaCl, replicate 1 of N=3): 0.0004334 abs/min | Activity of LmPC-PLC towards 4-NPPC (slope) (LmPC-PLC [1]; inhibitor 8 uM, LmPC-PLC 500 nM, 4-NPPC 1 mM, 20 mM MES pH 6.5, 150 mM NaCl, replicate 2 of N=3): 0.0004696 abs/min | Activity of LmPC-PLC towards 4-NPPC (slope) (LmPC-PLC [1]; inhibitor 8 uM, LmPC-PLC 500 nM, 4-NPPC 1 mM, 20 mM MES pH 6.5, 150 mM NaCl, replicate 3 of N=3): 0.0004182 abs/min | Activity of LmPC-PLC towards 4-NPPC (slope) (LmPC-PLC [1]; inhibitor 16 uM, LmPC-PLC 500 nM, 4-NPPC 1 mM, 20 mM MES pH 6.5, 150 mM NaCl, replicate 1 of N=3): 0.0003725 abs/min | Activity of LmPC-PLC towards 4-NPPC (slope) (LmPC-PLC [1]; inhibitor 16 uM, LmPC-PLC 500 nM, 4-NPPC 1 mM, 20 mM MES pH 6.5, 150 mM NaCl, replicate 2 of N=3): 0.0004155 abs/min | Activity of LmPC-PLC towards 4-NPPC (slope) (LmPC-PLC [1]; inhibitor 16 uM, LmPC-PLC 500 nM, 4-NPPC 1 mM, 20 mM MES pH 6.5, 150 mM NaCl, replicate 3 of N=3): 0.0003534 abs/min | Activity of LmPC-PLC towards 4-NPPC (slope) (LmPC-PLC [1]; inhibitor 31 uM, LmPC-PLC 500 nM, 4-NPPC 1 mM, 20 mM MES pH 6.5, 150 mM NaCl, replicate 1 of N=3): 0.0002559 abs/min | Activity of LmPC-PLC towards 4-NPPC (slope) (LmPC-PLC [1]; inhibitor 31 uM, LmPC-PLC 500 nM, 4-NPPC 1 mM, 20 mM MES pH 6.5, 150 mM NaCl, replicate 2 of N=3): 0.0003429 abs/min | Activity of LmPC-PLC towards 4-NPPC (slope) (LmPC-PLC [1]; inhibitor 31 uM, LmPC-PLC 500 nM, 4-NPPC 1 mM, 20 mM MES pH 6.5, 150 mM NaCl, replicate 3 of N=3): 0.0003443 abs/min

[Zn] [Zn]
Activity of LmPC-PLC, 4-NPPC as substrate (slope) (LmPC-PLC [1]; Zn 500 uM, 0 mM TCEP, LmPC-PLC 500 nM, 4-NPPC 1 mM, replicate 1): 0.0003721 | Activity of LmPC-PLC, 4-NPPC as substrate (slope) (LmPC-PLC [1]; Zn 500 uM, 0 mM TCEP, LmPC-PLC 500 nM, 4-NPPC 1 mM, replicate 2): 0.0004616 | Activity of LmPC-PLC, 4-NPPC as substrate (slope) (LmPC-PLC [1]; Zn 500 uM, 0 mM TCEP, LmPC-PLC 500 nM, 4-NPPC 1 mM, replicate 3): 0.0006377 | Activity of LmPC-PLC, 4-NPPC as substrate (slope) (LmPC-PLC [1]; Zn 5000 uM, 0 mM TCEP, LmPC-PLC 500 nM, 4-NPPC 1 mM, replicate 1): 0.0007074 | Activity of LmPC-PLC, 4-NPPC as substrate (slope) (LmPC-PLC [1]; Zn 5000 uM, 0 mM TCEP, LmPC-PLC 500 nM, 4-NPPC 1 mM, replicate 2): 0.000691 | Activity of LmPC-PLC, 4-NPPC as substrate (slope) (LmPC-PLC [1]; Zn 5000 uM, 0 mM TCEP, LmPC-PLC 500 nM, 4-NPPC 1 mM, replicate 3): 0.0004664

broad-range phospholipase C from Listeria monocytogenes (LmPC-PLC), wild type, mature form (from UniProt P33378 52-289) (enzyme)
stoichiometry N [3]: 2

From article PMC10576769 (Nature Communications, 2023)
